Calls of active or inactive are those of the source. The rule behind the calls is not given here. Starred links: 1 amine or outer side, 2 acyl side, 3 side chain; linkers in the order of their positions; H or OH if unused. Non-standard residues stand in square brackets, D forms with d. Residues, ends and D or L forms follow the SMILES beside them. X2 = CCC[C@@H](N[*:1])[C@H](C)C(=O)O[C@H](C(=O)[*:2])[C@@H](C)CC; X1 = CC(N[*:1])C(=O)C(C)(C)C(=O)[*:2]; NMeY = CN[C@@H](Cc1ccc(O)cc1)C(=O)O; NMeL = CN[C@@H](CC(C)C)C(=O)O; NMeV = CN[C@H](C(=O)O)C(C)C; NMeA = CN[C@@H](C)C(=O)O
System: Jurkat NF-kB reporter, TCR-induced, luciferase luminescence
Experiment: inhibitors of TCR-driven NF-kB activation, dose response, Jurkat cells, luminescence (AID 489035)

Structure (SMILES) | IC50
CCCCCCCCCCn1ccc(=N)cc1 | 3.84 µM
CCOC(=O)COc1cccc2c(=O)n(CC(=O)NCc3ccccc3)ccc12 | > 80 µM (inactive)
CCCCn1c2c(c(=N)c3c1CCC3)CCC2 | > 80 µM (inactive)
O=S1(=O)C=C(Sc2nc3cc(Cl)ccc3o2)c2ccccc21 | < 0.16 µM
COC(=O)c1ccccc1NC(=O)Cn1c(-c2nonc2N)nc2ccccc21 | 43.6 µM (inactive)
Cc1cc(C)c(S(=O)(=O)Nc2ccc3c4c(cccc24)CC3)c(C)c1 | 61 µM (inactive)
O=S(=O)(Nc1ccc(F)cc1Cl)c1ccc(-c2cnc(C3CC3)o2)cc1 | > 80 µM (inactive)
C=CCSc1nc2ccccc2n1C(=O)/C=C/c1cc(OC)c(OC)c(OC)c1 | 1.79 µM
CC(C)c1ccc(/C=N/Nc2ccc(C(=O)O)cc2)cc1 | 4.63 µM
Cc1ncoc1C(=O)NC1CCCc2c1cnn2-c1ccc(C(C)(C)C)cc1 (configuration not stated) | > 80 µM (inactive)
CC1(C)Cc2nc3sc4c(=O)n(CC(=O)NCc5ccccc5)cnc4c3cc2CO1 | > 80 µM (inactive)
O=C(Nc1ccc(Oc2cccnc2)nc1)c1ccc(C(F)(F)F)cc1 | > 80 µM (inactive)
CCOc1ccccc1NC(=O)CN(c1ccc(OC)cc1)S(=O)(=O)c1c(C)noc1C | > 80 µM (inactive)
Cc1cc(NC(=O)CSc2nc3ccccc3c(=O)n2C2CCCC2)no1 | > 80 µM (inactive)
CCOc1cccc(-c2nnc3n2N=C(c2cc(OC)ccc2OC)CS3)c1 | > 80 µM (inactive)
C[C@]12CC[C@@H]3c4cc(O)c(O)cc4CC[C@H]3[C@@H]1CC[C@@H]2O | 4.76 µM
CCOc1cccc(/C=N/Nc2ccc(S(=O)(=O)N(CC)CC)cn2)c1O | 21.8 µM (inactive)
N=c1ccn(CC(=O)c2ccc(-c3ccccc3)cc2)cc1 | 54.5 µM (inactive)
Cc1ccc(N(C)S(=O)(=O)c2ccc(-c3cnc(C4CC4)o3)cc2)cc1 | 44.6 µM (inactive)
O=C1c2cccc3cc([N+](=O)[O-])cc(c23)C(=O)N1CCN1CCCC1 | > 80 µM (inactive)
COc1ccc([N+](=O)[O-])cc1Nc1c2ccccc2nc2ccccc12 | 50.7 µM (inactive)
CCC[C@H]1NC(=O)[C@H](C)N(C)C(=O)C(C)(C)C(=O)C(C)NC(=O)[C@H](Cc2ccc(OC)cc2)N(C)C(=O)[C@H](C(C)C)N(C)C(=O)CNC(=O)[C@H](CC(C)C)N(C)C(=O)CNC(=O)[C@H]([C@@H](C)CC)OC(=O)[C@H]1C (some centres not stated) (cyclo(G[NMeL]G[NMeV][NMeY](Me)[X1][NMeA][X2])) | > 80 µM (inactive)
COc1cc(Cn2c(-c3nonc3N)nc3ccccc32)ccc1C | > 80 µM (inactive)
CCOC(=O)c1ccc(NC(=O)Cn2cnc3cc(C)c(C)cc32)cc1 | > 80 µM (inactive)
COc1ccc(/C=N/NC(=O)COc2ccccc2-c2ccccc2)cc1 | 37.9 µM (inactive)

Structure (SMILES) | IC50
COc1ccc(-c2ccc3oc(-c4ccc(OC)cc4)c(C#CCO)c3c2)cc1 | > 80 µM (inactive)
Cc1c(C(=O)N/N=C/c2ccc(Cl)cc2)[nH]c2ccc(Cl)cc12 | > 80 µM (inactive)
COc1ccc(CCN2C(=O)C3C4C=CC(C3C2=O)C2C(=O)N(CCc3ccc(OC)c(OC)c3)C(=O)C42)cc1OC (configuration not stated) | > 80 µM (inactive)
CCCCCCCOc1ccc(OC(=O)c2ccncc2)cc1 | > 80 µM (inactive)
CC[C@]1(O)CC2CN(CCc3c([nH]c4ccccc34)[C@@](C(=O)OC)(c3cc4c(cc3OC)N(C=O)[C@H]3[C@@](O)(C(=O)OC)[C@H](OC(C)=O)[C@]5(CC)C=CCN6CC[C@]43[C@@H]65)C2)C1 (some centres not stated) | > 80 µM (inactive)
O=C(NCc1ccc2c(c1)OCO2)c1cc([N+](=O)[O-])ccc1N1CCOCC1 | > 80 µM (inactive)
Cc1nc(SCC(=O)Nc2nc3ccccc3s2)c(C#N)c(C)c1C | 0.75 µM
COc1cc2nc(CN3CC=C(c4ccccc4)CC3)[nH]c(=O)c2cc1OC | > 80 µM (inactive)
Cc1nc2ccccc2c2c1CC(C(C)(Cl)Br)O2 (configuration not stated) | > 80 µM (inactive)
CC(=O)O[C@H]1C(=O)[C@@]2(C)C([C@H](OC(=O)c3ccccc3)[C@]3(O)C[C@H](OC(=O)[C@H](O)[C@@H](NC(=O)c4ccccc4)c4ccccc4)C(C)=C1C3(C)C)[C@]1(OC(C)=O)CO[C@@H]1C[C@H]2O (some centres not stated) | < 0.16 µM
Cc1ccc(/C=C/c2ccc(N(C)C)cc2)[n+](C)c1 | > 80 µM (inactive)
c1ccc(-c2noc(-c3ccc4ccccc4c3)n2)nc1 | 0.46 µM
Cc1ccc(C(=O)c2cc([N+](=O)[O-])ccc2N2CCCCC2)c(C)c1 | > 80 µM (inactive)
O=C(NCCc1ccccc1)c1ccc2c(c1)OCCO2 | 1.64 µM
CCN1/C(=C/C(C)=C/c2sc3ccccc3[n+]2CC)Sc2ccccc21 | 4.63 µM
O=[N+]([O-])c1ccc(O)c(/C=N/Nc2ccc(Cl)nn2)c1 | 54 µM (inactive)
Cc1cc(-c2ccc(C(C)C)c(S(=O)(=O)N3CCN(c4ccccc4)CC3)c2)on1 | > 80 µM (inactive)
CCCCOc1ccc(Br)cc1/C(C)=N/NC1=NCCN1 | 5.51 µM
CCCCC(=O)NC(c1ccc(Cl)cc1)c1ccc2cccnc2c1O (configuration not stated) | 8.39 µM
Cc1ccc2nc(-c3ccc4c(c3)OCCO4)cn2c1 | 1.01 µM
CCCCc1ccc(NC(=O)C(=O)NCCN2CCN(Cc3ccc([N+](=O)[O-])cc3)CC2)cc1 | > 80 µM (inactive)
CCCCCCCCCCCCCCCC[n+]1ccc(/C=N/O)cc1 | 1.57 µM
O=C(CNC(=O)c1ccco1)N=Nc1c(O)n(CCc2ccccc2)c2ccccc12 | > 80 µM (inactive)
Cc1c(C(=O)N2CCOCC2)[nH]c2c1C(=O)CC(c1ccccc1Cl)C2 (configuration not stated) | > 80 µM (inactive)
CCOC(=O)CSC1=C(C#N)C(c2ccc(C)s2)CC(=O)N1 (configuration not stated) | > 80 µM (inactive)

Structure (SMILES) | IC50
COc1ccc(CC(=O)Nc2cccc(-c3nnc(-c4cccc(C)c4)o3)c2)cc1OC | 47.6 µM (inactive)
Cc1ccc(C(=O)O/N=C(\N)c2ccccn2)c(Cl)c1 | 1.11 µM
C#CC[N+](C)(C)CCCCCCCCCCCC | 9.77 µM
CCCOc1ccccc1C1CC(=O)Nc2cc3c(cc21)OCO3 (configuration not stated) | > 80 µM (inactive)
O=C(O)c1ccc(-c2ccc(-c3ccccc3)cc2)s1 | 1.39 µM
CCOC(=O)N1CCN(C(=O)C2CCCN(Cc3nc(-c4ccc(Cl)cc4)oc3C)C2)CC1 (configuration not stated) | > 80 µM (inactive)
O=C(c1ccccc1-c1ccccc1)N1CCN(c2ccccn2)CC1 | > 80 µM (inactive)
CCOc1ccc2c(c1)OC(c1ccc(OC)cc1)(C(F)(F)F)NC2=O (configuration not stated) | > 80 µM (inactive)
CCOc1ccc(N/C(N)=N/c2nc(CSc3nnc(C)s3)cc(=O)[nH]2)cc1 | > 80 µM (inactive)
COc1ccc(CS(=O)(=O)/C(Cl)=C(/Cl)C(=O)Nc2ccc(OC)nc2)cc1 | 0.45 µM
C=CCNC(=S)N/N=C(\C)c1ccccn1 | 1.09 µM
CCOC(=O)c1[nH]c(C)c(C(=O)Nc2ccccc2C)c1C | < 0.16 µM
Cc1ccc(NC(=O)Nc2ccnc(-c3cccnc3)n2)cc1 | 0.84 µM
CCc1c(C)nc2ncnn2c1NCCc1ccc(OC)cc1 | > 80 µM (inactive)
O=C1C=CCC(/C=C/c2ccccc2)O1 (configuration not stated) | 0.17 µM
CC1=C(C(=O)OCc2ccc3c(c2)OCO3)C(c2ccc(Cl)cc2)NC(=O)N1 (configuration not stated) | 0.63 µM
CCOc1ccc(NC(=O)c2cc3c(C)nc4ccccc4c3o2)cc1 | > 80 µM (inactive)
COc1ccc(NC(=O)/C(Cl)=C(/Cl)S(=O)Cc2ccccc2)cn1 (configuration not stated) | 0.26 µM
CN(Cc1ccccc1)C1=CC(=[N+]2CCCCC2)CC(C)(C)C1 | 20.3 µM (inactive)
Cc1cccc(N=Nc2ccc(O)c3ncccc23)c1 | 6.14 µM
CC1CCCN(c2ncnc3c2cnn3-c2ccc(Cl)cc2)C1 (configuration not stated) | 10.5 µM
Cc1ccc2c(c1)Oc1ccc(NC(=O)CCl)cc1C(=O)N2 | 5.22 µM
COc1ccc(/C=N\NC(=O)c2ccccc2F)cc1COc1ccc(F)cc1F | > 80 µM (inactive)
CCCCS(=O)(=O)/C=C\C=C/S(=O)(=O)CCCC | 0.72 µM
COc1ccc(OC)c2c1C(=O)C(Cl)=C(Cl)C2=O | 1.65 µM

Structure (SMILES) | IC50
CC(C)(C)c1ccc(C(=O)O/N=C(\N)c2ccccn2)cc1 | 9.45 µM
C/C=C/COC(=O)c1[nH]c2c(c1C)C(=O)CC(c1ccco1)C2 (configuration not stated) | > 80 µM (inactive)
COc1ccc([C@H]2CC(=O)C=C(c3c(OC)cccc3OC)C2)cc1 | > 80 µM (inactive)
COC(=O)Cc1[nH]n(-c2nc3ccccc3s2)c(=O)c1C(C)=Nc1ccc(OC)cc1 | 6.49 µM
CCCCN=C[C@]12CCC(O)CC1(O)CCC1[C@@H]2CC[C@]2(C)[C@H](C3C=CC(=O)O3)CCC12O (some centres not stated) | > 80 µM (inactive)
Cc1ccc(C(=O)Nc2ncc(Cc3ccc(SC(F)F)cc3)s2)cc1 | > 80 µM (inactive)
Cc1cnc(NC(=O)c2ccc3c(c2)OCCO3)s1 | 1 µM
COc1cc(NCCCCCCCN)c2ncccc2c1 | 21 µM (inactive)
CCN1C/C(=C/c2ccc(OC)c(O)c2)C(=O)/C(=C/c2ccc(OC)c(O)c2)C1 | 22.5 µM (inactive)
CC(C)CCOc1cccc(OCC(=O)Nc2ccncc2)c1 | > 80 µM (inactive)
Cc1cc(NC(=O)COC(=O)c2ccc(S(=O)(=O)N3CCCc4ccccc43)cc2)no1 | > 80 µM (inactive)
COC(=O)c1ccc2nc(Nc3nc4c(F)cc(F)cc4s3)sc2c1 | 52.9 µM (inactive)
COc1ccc(S(=O)(=O)/N=C2\C=C(Nc3ccc(O)cc3)C(=O)c3ccccc32)cc1 | 0.53 µM
O=C(Nc1ccc([N+](=O)[O-])cc1)Nc1ccon1 | > 80 µM (inactive)
COc1ccc(NC(=O)C(=O)NCC2CCCN2S(=O)(=O)c2cccs2)cc1 (configuration not stated) | 7.15 µM
Cc1ccc(C)c(N=Nc2ccc(O)c3ncccc23)c1 | 28.3 µM (inactive)
COc1cc(C(=O)N2CCN(c3cccc(C)c3C)CC2)cc(OC)c1OC | > 80 µM (inactive)
CC(=O)O[C@@]12CO[C@@H]1C[C@H](O)[C@@]1(C)C(=O)[C@H](O)C3=C(C)[C@@H](OC(=O)[C@H](O)[C@@H](NC(=O)c4ccccc4)c4ccccc4)C[C@@](O)([C@@H](OC(=O)c4ccccc4)C12)C3(C)C (some centres not stated) | 39.4 µM (inactive)
CC1=NNC(=O)/C1=C\c1cn(-c2ccccc2)nc1-c1ccc(Cl)cc1 | 1.13 µM
O=C(Nc1ccc(F)cc1)c1ccc(CN2CCc3ccccc3C2)cc1 | > 80 µM (inactive)
O[C@@H]1[C@@H](O)C=C2CCN3Cc4cc5c(cc4[C@H]1C23)OCO5 (some centres not stated) | 0.84 µM
O=S1(=O)C=C(Sc2nc3ccccc3s2)c2ccccc21 | 0.26 µM
